Experimental findings from ChEMBL document CHEMBL2417456, “Hit identification and optimization in virtual screening: practical recommendations based on a critical literature analysis” (J Med Chem, 2013) are described below.

As a reminder, the IC50 is the point on the concentration scale where inhibition reaches its midpoint. Read a high IC50 as a need for much substance. Usually EC50 stands for the concentration giving half of the maximal effect.

Assay [1] in a line: Inhibition of HIV1 His6-tagged integrase-FLAG-tagged LEDGF/p75 (unknown origin) interaction after 1 hr by AlphaScreen assay.
Assay [2] deals with Human immunodeficiency virus 1. Put plainly: Antiviral activity against HIV1 infected in human MT2 cells assessed as protection from viral replication. The class given is functional, organism-based. The following applies: Human immunodeficiency virus 1, MT2.

Molecules are shown by their SMILES. A value given as a limit tells only on which side of the number the result lay.

In turn, `O=C(O)/C(O)=C/C(=O)c1c[nH]c2cccc(O)c12` came in with a 50% inhibitory concentration (IC50) in assay [1] of 35 µM.
For the compound `COc1ccc(Cc2nnc(Nc3ccc(C)cc3)o2)cc1OC`, in assay [2], the half-maximal effective concentration (EC50) is > 100 µM.
`O=C(O)/C(O)=C/C(=O)c1cn(Cc2ccc(F)cc2)c2ccccc12` returned a half-inhibitory concentration (IC50) in assay [1] of 100 µM.
